# Data published in patent US20040235931A1, “Inhibition of herpes virus replication” (priority 2003, published 2004).
# Columns and labels:
# [1] = tested on: HSV-2; experiment: HSV-2 replication in Vero cells, pfu determination; type: cell-based, herpes simplex virus type 2 (HSV-2); conditions: 267 μM I3C
# Description: Vero cell cultures that had been pretreated with 267 μM of I3C were infected with HSV-2 at an moi of one for 1 hour At 24, 48, and 72 hours after infection, the number of pfu's present in the cells and medium of the I3C pre-treated cultures were determined. In addition, Vero cells were infected with HSV-2 at an moi of one for 1 hour, and thereafter the cultures were rinsed three time with media and incubated in medium containing 267 μM prepared in 0.2% dimethyl-sulfoxide (DMSO). At 24, 48, and 72 hours after infection, the number of pfu's present in the test cell pre-treated with I3C or treated with I3C post infection were determined.
# [2] = tested on: HSV-1; experiment: HSV-1 replication in MRC-5 cells, pfu determination; type: cell-based, herpes simplex virus type 1 (HSV-1); conditions: 375 μM I3C, pretreatment for 24 or 36 hours prior to infection
# Description: MRC-5 cell cultures were infected with HSV-1 as described above in Example 1 except that the cells were treated with 375 μM of I3C following infection or for 12, 24, or 36 hours prior to infection. Cells were infected with HSV-1 at an moi of 1 for 1 hour. Following removal of the unabsorbed virus, the infected cells were incubated in media containing 0.2% DMSO (control cells) or in media containing 375 μM of I3C (test cells) At 24, 48, and 72 hours after infection, the number of pfu's present in the cells and medium of the cultures treated with I3C prior to or after infection was determined.
# [3] = tested on: Vero cells; experiment: MTT toxicity assay in Vero cells; type: cell-based, African green monkey; conditions: MTT, 24, 48 and 72 hours
# Description: (§1) African green monkey kidney cells (Vero) and Human neonatal lung fibroblasts cells (MRC-5) were obtained from the American Type Culture Collection, (Rockville, Md.). Vero cells were grown and maintained in Medium 199 supplemented with 5% fetal bovine serum, 0.075% NaHCO3 and 50 μg/ml gentamycin sulfates. MRC-5 cells were grown and maintained in Minimal Essential Medium with Earle's Balanced Salt Solution containing 2 mM L-glutamine supplemented with 10% fetal bovine serum, 0.lmM nonessential amino acids, 1 mM sodium pyruvate, 2% sodium bicarbonate and 50 μg/ml gentamycin sulfate.
# (§2) Cells were exposed to drug treated media of varying concentrations. […] I3C concentrations used in these studies were 50% and 75% of the CD50. Cells were seeded onto a 96 well at 10,000 cells/well and grown for 24 hours. Twelve different serially diluted concentrations of I3C were then incubated with the cells for 24, 48 and 72 hours and colorimetric readings were taken at these time points using the MTT reagent. Controls included in the 96 well plate were, media alone that contained no cells but with I3C, media with cells but no I3C, and plain media with 0.2% DMSO and no cells or drug. At 24, 48 and 72 hours a sigmoidal curve was generated for each time period and the data analyzed. Approximately, 500 μM was the concentration at which 50 percent of the cells died (CD50).
# [4] = tested on: HSV-1; experiment: HSV-1 replication in Vero cells, plaque forming units (pfu) titration; type: cell-based, herpes simplex virus type 1 (HSV-1)
# Description: Cultures of African green monkey kidney cells (Vero) cells, obtained from the American Type Culture Collection, Rockville, Md., were grown to confluence in Medium 199 supplemented with 5% fetal bovine serum, 0.075% NaHCO3, and 50 μg/ml gentamycin sulfate in 25 cm^2 tissue culture flasks. Cells were infected with HSV-1 at a multiplicity of infection (moi) of one and incubated at room temperature for one hour to allow for virus attachment to and penetration of the cell. Under these conditions, approximately half of the cells are infected with virus. Thereafter, the cultures were rinsed three time with media and incubated in medium containing 133 μM, 267 μM, or 400 μM I3C prepared in 0.2% dimethyl-sulfoxide (DMSO). Controls were treated identically, but were incubated without the I3C.
# Upon addition of the medium to the cultures and at 24 hours time periods thereafter, i.e., 0 hours, 24 hours, 48 hours, and 72 hours after addition of the drug, cells and medium were frozen at −70° C. Samples were then thawed, sonicated and titrated on Vero cells to determine the number of plaque forming units (pfu's) of virus produced by each culture.
# Vero cell cultures were infected with HSV-1 as described above in Example 1 except that the cells were treated with 267 μM of I3C for 6, 12, or 24 hours prior to infection. Cells were infected with HSV-1 at an moi of 1 for 1 hour. Following removal of the unabsorbed virus, the infected cells were incubated in media containing 0.2% DMSO (control cells) or in media containing 267 μM of I3C (test cells) At 24, 48, and 72 hours after infection, the number of pfu's present in the cells and medium of the I3C -treated cultures was determined.
# [5] = tested on: acyclovir resistant HSV-1; experiment: Acyclovir-resistant HSV-1 replication in Vero cells, pfu determination; type: cell-based, herpes simplex virus type 1 (HSV-1)
# Description: Vero cell cultures were infected with acyclovir resistant HSV-1 at an moi of one for one hour. Test cells were treated with 267 μM of I3C immediately after or 24 hours prior to infection. At 24, 48, and 72 hours after infection, the number of pfu's present in the test cell pre-treated with I3C or treated with I3C post infection were determined.
# [6] = tested on: MRC-5 cells; experiment: MTT toxicity assay in MRC-5 cells; type: cell-based, Human; conditions: MTT, 24, 48 and 72 hours
# Description: as §1, §2
# [7] = tested on: HSV; experiment: Direct inactivation of HSV by incubation with I3C, plaque assay; conditions: HSV mixed with I3C solution (267 μM); 1, 10, 30 and 60 minutes; compared to control virus
# Description: To determine if I3C could directly inactivate […] studies were done in which HSV was mixed with a solution of I3C (267 μM). Samples were taken at 1, 10, 30 and 60 minutes and the presence of infectious virus determined by the plaque assay.
structure (smiles),measurement,setting,value
"OCc1c[nH]c2ccccc12 [I3C, indole-3-carbinol]","HSV-2 replication, first 24 hours",[1]; Vero cells treated 24 hours pre-infection,proceeded at a reduced rate for 24 hours
same,"HSV-2 replication, first 24 hours",[1]; Vero cells treated post infection,proceeded at a reduced rate for 24 hours
same,HSV-2 replication at 48 and 72 hours,[1]; post-treated Vero cells,decreased at 48 and 72 hours
same,HSV-2 replication at 48 and 72 hours,[1]; pre-treated Vero cells,decreased at 48 and 72 hours
same,HSV-1 replication in MRC5 cells,[2],inhibition of HSV-1 replication
same,CD50 (concentration at which 50 percent of the cells died),[3],~500 µM
same,inhibition of HSV replication,"[4]; 267 μM I3C, Vero cells incubated 12 to 24 hours prior to infection",dramatic and complete
same,HSV replication,"[4]; 267 μM I3C, Vero cells pre-incubated 6 hours prior to infection, 24, 48, 72 hours after infection",proceeded at a reduced rate for 24 hours and then rapidly decreased at 48 and 72 hours to undetectable levels
same,infectious HSV particles in cultures,"[4]; 400 μM I3C continuously post infection, Vero cells, by 72 hours",virtually undetectable
same,inhibition of formation of infectious virus particles,"[4]; 400 μM I3C post infection, Vero cells, moi 1, at 24 hours",more than 99%
same,dose dependence of inhibition of virus replication,"[4]; 133, 267, 400 μM I3C post infection, Vero cells",dose dependent
same,replication of acyclovir-resistant HSV,"[5]; 267 μM I3C post infection, Vero cells, 24, 48, 72 hours after infection",proceeded at a reduced rate for 24 hours and then rapidly decreased at 48 and 72 hours to undetectable levels
same,inhibition of acyclovir-resistant HSV 1 replication,"[5]; 267 μM I3C, Vero cells incubated 24 hours prior to infection",dramatic and complete
same,CD50 (concentration at which 50 percent of the cells died),[6],~500 µM
same,direct inactivation of HSV,[7],no significant inactivation of HSV
